Measurements from PMC8400343, “Synthesis and Evaluation of the Antidepressant-like Properties of HBK-10, a Novel 2-Methoxyphenylpiperazine Derivative Targeting the 5-HT1A and D2 Receptors” (Pharmaceuticals, 2021).

Columns and labels:
human 5-HT6 receptor = target: T1, human 5-HT6 receptor (Homo sapiens, UniProt P50406); assay: Radioligand binding, [3H]-LSD, CHO-K1 membranes; settings: CHO-K1 cells, mean ± SEM, read-out: Serotonergic pKi 5-HT6 (converted)
T1 construct: expressed in transfected cells; host or cells: CHO-K1 (membranes)
T1 sequence (P50406 whole entry): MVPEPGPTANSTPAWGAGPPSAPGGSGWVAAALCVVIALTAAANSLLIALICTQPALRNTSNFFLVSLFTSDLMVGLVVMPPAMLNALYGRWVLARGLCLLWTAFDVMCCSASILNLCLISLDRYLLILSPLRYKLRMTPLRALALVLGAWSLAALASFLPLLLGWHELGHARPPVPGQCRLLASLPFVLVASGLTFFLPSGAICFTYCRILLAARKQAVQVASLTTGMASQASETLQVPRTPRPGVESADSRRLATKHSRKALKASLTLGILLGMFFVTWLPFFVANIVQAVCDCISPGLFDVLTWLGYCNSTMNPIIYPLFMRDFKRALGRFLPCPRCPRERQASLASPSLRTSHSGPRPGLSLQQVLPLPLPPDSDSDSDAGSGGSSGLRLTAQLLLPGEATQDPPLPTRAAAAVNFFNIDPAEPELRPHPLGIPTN
Experimental: (§1) Radioligand binding was performed on membranes from CHO-K1 cells stably transfected with the human 5-HT1A, 5-HT2A, 5-HT6, or 5-HT7 receptors. […] Binding experiments were conducted in 96-well microplates, and the reaction mix included the solution of the test compound, radioligand, and diluted membranes or the tissue suspension.
(§2) The reaction was terminated by rapid filtration through GF/B or GF/C filter mate presoaked with 0.3% polyethyleneimine for 30 min. Ten rapid washes with 200 µl 50 mM Tris buffer (4 °C, pH 7.4) were performed using an automated harvester system Harvester-96 MACH III FM (Tomtec). […] Radioactivity was counted in the MicroBeta2 scintillation counter (PerkinElmer) at approximately 30% efficiency. […] A single assay was performed with each compound concentrations in duplicate, and the whole assay was repeated in a three independent experiments.

mice [1] = assay: Chimney test in mice; assay type: in vivo, mouse
Experimental: (§3) The chimney test was performed as previously described. The mice were trained before the test, and only those animals able to get out of the chimney within 1 min, were used at the experimental stage. The selected mice were placed in a 25 cm long and 2.5 cm in diameter horizontally located tube, which was reversed so that the mice could leave it only by climbing up backward until they reached the other end. Motor impairment was indicated by the inability of the mice to perform the test within 60 s. The number of animals unable to climb backward within 60 s was recorded, and TD50 values were calculated.

Chimney test in mice = assay type: in vivo, mouse; settings: mouse, in vivo; ip, log-probit method
Experimental: as §3

human 5-HT7 receptor = target: T2, human 5-HT7 receptor (Homo sapiens, UniProt P34969); assay: Radioligand binding, [3H]-5-CT, CHO-K1 membranes; settings: CHO-K1 cells, mean ± SEM, read-out: Serotonergic pKi 5-HT7 (converted)
T2 construct: expressed in transfected cells; host or cells: CHO-K1 (membranes)
T2 sequence (P34969 whole entry): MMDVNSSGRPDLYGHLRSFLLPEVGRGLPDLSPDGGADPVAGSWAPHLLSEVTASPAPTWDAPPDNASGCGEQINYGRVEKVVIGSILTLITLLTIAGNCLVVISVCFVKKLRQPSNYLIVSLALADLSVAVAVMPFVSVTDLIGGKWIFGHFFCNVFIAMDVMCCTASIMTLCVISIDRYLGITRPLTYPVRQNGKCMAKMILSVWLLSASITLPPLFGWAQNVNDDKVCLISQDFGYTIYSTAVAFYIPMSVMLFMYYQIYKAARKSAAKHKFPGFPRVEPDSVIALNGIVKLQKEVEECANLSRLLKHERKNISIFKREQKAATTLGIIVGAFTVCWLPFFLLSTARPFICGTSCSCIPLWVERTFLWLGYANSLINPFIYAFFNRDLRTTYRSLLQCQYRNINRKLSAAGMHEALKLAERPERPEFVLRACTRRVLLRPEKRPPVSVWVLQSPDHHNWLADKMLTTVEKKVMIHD
Experimental: as §1, §2

mice [2] = assay: Rotarod test in mice; assay type: in vivo, mouse
Experimental: (§4) This experimental procedure was described in detail in our earlier studies. Briefly, mice were trained on the rotarod apparatus (May Commat RR0711, Turkey; rod diameter: 2 cm) every day for 3 consecutive days. During each training session, mice were placed for 3 min on the rotating rod (24 rpm, constant speed) with an unlimited number of trials. The experiment was performed 24 h after the last training session. On the test day, mice were injected with HBK-10, and 30 min after the administration tested on the rotarod (24 rpm, constant speed). Motor impairment was regarded as the inability to remain on the rotating rod for 60 s and was expressed as the % of animals that fell off the rotating rod.

Rotarod test in mice = assay type: in vivo, mouse; settings: mouse, in vivo; ip, log-probit method
Experimental: as §4

human 5-HT2A receptor = target: T3, human 5-HT2A receptor (Homo sapiens, UniProt P28223); assay: Radioligand binding, [3H]-ketanserin, CHO-K1 membranes; settings: CHO-K1 cells, mean ± SEM, read-out: Serotonergic pKi 5-HT2A (converted)
T3 construct: expressed in transfected cells; host or cells: CHO-K1 (membranes)
T3 sequence (P28223 whole entry): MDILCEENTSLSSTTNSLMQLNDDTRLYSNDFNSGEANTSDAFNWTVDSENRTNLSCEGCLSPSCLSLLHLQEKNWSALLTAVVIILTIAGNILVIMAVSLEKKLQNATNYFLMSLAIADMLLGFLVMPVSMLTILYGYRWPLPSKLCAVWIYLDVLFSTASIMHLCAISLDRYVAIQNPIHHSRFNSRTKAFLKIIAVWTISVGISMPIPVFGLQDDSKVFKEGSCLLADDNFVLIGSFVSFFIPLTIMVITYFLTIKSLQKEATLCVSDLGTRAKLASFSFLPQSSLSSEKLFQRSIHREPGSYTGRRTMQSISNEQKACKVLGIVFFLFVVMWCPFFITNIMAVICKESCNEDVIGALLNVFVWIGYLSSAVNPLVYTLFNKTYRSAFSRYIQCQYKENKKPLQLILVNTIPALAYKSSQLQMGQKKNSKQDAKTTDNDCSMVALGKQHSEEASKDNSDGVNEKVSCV
Experimental: as §1, §2

mice [3] = assay: Spontaneous locomotor activity in mice; assay type: in vivo, mouse; settings: for Number of Crossings ± SEM: 4 min
Experimental: (§5) The locomotor activity of mice was measured as previously described. We used photoresistor actometers (Ugo Basile, Italy) connected to a counter for the recording of light-beam interruptions. Mice were placed individually in cages for 30 min, and the number of crossings of the light beams was recorded as the locomotor activity for 4 min.

[4] = Spontaneous locomotor activity in mice; assay type: in vivo, mouse; settings: mouse, in vivo; ip, mice; read-out: ED50 (locomotor activity, sedative effect)
Experimental: as §5

human 5-HT1A receptor = target: T4, human 5-HT1A receptor (Homo sapiens, UniProt P08908); assay: Radioligand binding, [3H]8-OH-DPAT, CHO-K1 membranes; settings: CHO-K1 cells, mean ± SEM, read-out: Serotonergic pKi 5-HT1A (converted)
T4 construct: expressed in transfected cells; host or cells: CHO-K1 (membranes)
T4 sequence (P08908 1-422): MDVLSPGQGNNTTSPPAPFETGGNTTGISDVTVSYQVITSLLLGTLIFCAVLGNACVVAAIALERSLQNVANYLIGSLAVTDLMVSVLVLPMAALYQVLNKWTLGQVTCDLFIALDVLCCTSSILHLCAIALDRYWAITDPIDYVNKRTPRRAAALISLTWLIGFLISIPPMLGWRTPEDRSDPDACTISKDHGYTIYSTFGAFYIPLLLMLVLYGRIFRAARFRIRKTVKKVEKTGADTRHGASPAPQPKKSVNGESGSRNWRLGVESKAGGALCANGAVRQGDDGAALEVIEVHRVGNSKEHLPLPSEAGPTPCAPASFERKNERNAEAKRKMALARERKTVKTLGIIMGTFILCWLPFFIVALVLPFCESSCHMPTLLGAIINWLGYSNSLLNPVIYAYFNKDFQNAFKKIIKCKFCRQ
Experimental: as §1, §2

[5] = test system: corticosterone-treated mice; assay: Forced swim test in corticosterone-induced mouse model of depression; assay type: in vivo; settings: for Decrease of immobility in the forced swim test in corticosterone-treated mice: chronic (3 weeks)
Experimental: The experiment was performed on mice according to the method described by Porsolt et al. and as previously described. Mice were placed individually in glass cylinders (height 25 cm, diameter 10 cm) filled with water at 24 ± 1 °C to a depth of 10 cm and left there for 6 min. Following a 2 min habituation period, total time spent immobile was recorded during the next 4 min. The animal was considered as immobile when it remained floating passively in the water, making only small movements to keep its head above the water. The experiments were video-recorded and scored using elevenmaze.com software by a trained observer blind to the treatments.
Mice were injected with corticosterone (sc, 20 mg/kg) at random times during the light phase for 21 days. The dose and route of administration of corticosterone were based on our previous study. Control mice received saline containing 0.1% dimethyl sulfoxide (DMSO) and 0.1% Tween (sc). For the next 21 days, 30 min before the corticosterone injection, mice were injected with saline, HBK-10 (0.625 or 1.25 mg/kg), or fluoxetine (15 mg/kg) (ip). Twenty-four hours after the last injection, animals were tested in the forced swim test and locomotor activity test (Figure 8).

For CCC(CN1CCN(c2ccccc2OC)CC1)NCCCOc1c(C)cccc1C.Cl.Cl (stereo not shown) [HBK-10, N-(3-(2,6-dimethylphenoxy)propyl)-1-(4-(2-methoxyphenyl)piperazin-1-yl)butan-2-amine dihydrochloride], the Ki (human 5-HT6 receptor) was 3.72 µM, the melting point was 224 to 226 °C and the “% of Animals That Did Not Climb out the Chimney” value (mice [1]; 10 mg/kg ip) was 20%. For the same compound, the “% of Animals That Did Not Climb out the Chimney” value (mice [1]; 20 mg/kg ip) was 40%, the “% of Animals That Did Not Climb out the Chimney” value (mice [1]; 30 mg/kg ip) was 64% and the “% of Animals That Did Not Climb out the Chimney” value (mice [1]; 40 mg/kg ip) was 87%. For the same compound, the “% of Animals That Did Not Climb out the Chimney” value (mice [1]; 60 mg/kg ip) was 90%, the TD50 at 30 min (Chimney test in mice) was 21.7 mg/kg and the Ki (human 5-HT7 receptor) was 6.31 µM. For the same compound, the “% of Animals That Fell from Rotating Rod” value (mice [2]; 40 mg/kg ip) was 29%, the “% of Animals That Fell from Rotating Rod” value (mice [2]; 45 mg/kg ip) was 63% and the “% of Animals That Fell from Rotating Rod” value (mice [2]; 60 mg/kg ip) was 86%. For the same compound, the TD50 at 30 min (Rotarod test in mice) was 44.3 mg/kg, the Ki (human 5-HT2A receptor) was 191 nM and the “Number of Crossings ± SEM” value (mice [3]; 10 mg/kg ip) was 355.1 ± 49.92. The “Number of Crossings ± SEM” value (mice [3]; 20 mg/kg ip) was 329.8 ± 34.52, the “Number of Crossings ± SEM” value (mice [3]; 40 mg/kg ip) was 155.4 ± 29.59 and the “Number of Crossings ± SEM” value (mice [3]; 60 mg/kg ip) was 22.17 ± 2.03. For the same compound, the “ED50 for sedative effect, fold higher than the lowest antidepressant-like dose” value (mice [3]; mouse, in vivo) was “approximately 26 fold”, the ED50 at 4 min [4] was 32.3 mg/kg and the Ki (human 5-HT1A receptor) was 5.13 nM. For the same compound, the “Decrease of immobility in the forced swim test in corticosterone-treated mice” value ([5]; 0.625 mg/kg ip) was 30.9%, the “Decrease of immobility in the forced swim test in corticosterone-treated mice” value ([5]; 1.25 mg/kg ip) was 39.5% and the “Active dose in corticosterone model, fold lower than fluoxetine” value ([5]; chronic administration) was 24 fold. For the same compound, the “Active dose in corticosterone model, fold lower than HBK-15” value ([5]; comparator data ref 21) was 2 fold.
